The values below are quoted from earlier work in PMC3294027 (Methods (San Diego, Calif.), 2011).

Like-named read-outs stand apart in the source and are kept apart here.

What is called Kd is the free concentration of one partner at which half of the binding sites on the other are occupied at equilibrium, for simple one-to-one binding.

In series [1] the test system is antibody 2D12.5. Particulars: 0.1 M sodium phosphate, pH 7.0, SD in parentheses.
The test system of series [2] is antibody 2D12.5. Particulars: for Half-life / koff: TBS pH 7.4, Avg(SD); for Calc kon: calculated as koff/KD.

Turning to “cobalt(II) S-2-(4-aminobenzyl)-1, 4, 7, 10-tetraazacyclododecanetetraacetate [ABD(Co)]”, in series [1] (30 °C), the KA is reported as 8.2(±0.9) ×10^5 M^−1, the equilibrium dissociation constant (Kd) was 1200 nM, the ΔG is recorded as −8.2(±0.1) kcal/mol and the ΔH is given as −12.2(±0.4) kcal/mol. Further, the ΔS in series [1] (30 °C) is given as −13.2(±1.3) cal/mol-K. Moreover, in series [1] (37 °C), the KA is 7.1(±0.4) ×10^5 M^−1, the Kd was 1400 nM, the ΔG is on record as −8.3(±0.1) kcal/mol and the ΔH was −12.4(±4.8) kcal/mol. In series [1] (37 °C), the ΔS was −13.3(±4.8) cal/mol-K.
For “yttrium S-2-(4-aminobenzyl)-1, 4, 7, 10-tetraazacyclododecanetetraacetate [ABD(Y)]”, in series [1] (30 °C), the KA was 3.3(±2.1) ×10^8 M^−1, the Kd was 3.1 nM, the ΔG is on record as −11.7(±0.4) kcal/mol and the ΔH was −18.2(±0.5) kcal/mol. Besides, the ΔS in series [1] (30 °C) is reported as −21.5(±2.9) cal/mol-K. In series [1] (37 °C), the KA is 5.2(±0.9) ×10^8 M^−1, the Kd is 2 nM, the ΔG was −12.4(±0.2) kcal/mol and the ΔH is −20.1(±1.2) kcal/mol. Besides, in series [1] (37 °C), the ΔS is −24.9(±4.1) cal/mol-K. In series [2] (30°C), the Half-life was 2.68 ± 0.217 min, the koff is reported as 4.0(±0.3) x10^−3 s−1 and the Calc kon is 1.3e+06 M⁻¹ s⁻¹. Further, in series [2] (37°C), the Half-life was 1.62 ± 0.15 min, the koff was 7.0(±0.7) ×10^−3 s−1 and the Calc kon was 3.5e+06 M⁻¹ s⁻¹.
